In PubChem BioAssay AID1963827 (Molecular Pharmacology Branch, DTP, NCI, 2024):

System: 994946-033-R-J1-PDC complex spheroid viability
Assay: Anticancer human tumor 994946-033-R-J1-PDC patient-derived melanoma cell line growth inhibition [POLQ]
Conditions: for IC50: curve of first compound; for viability, T/C: stronger effect = lower value
Summary of the method: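 Growth inhibition in 3D: complex spheroids (tumor PDC, HUVEC, MSC) treated with POLQ inhibitor combinations; where Cmax unknown, highest tested concentration 10 microM, except SN-38 at 1 microM.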

[1] = second compound 0.0316 µM, first compound 0.0316 µM
[2] = second compound 0.0316 µM, first compound 0.1 µM
[3] = second compound 0.0316 µM, first compound 0.316 µM
[4] = second compound 0.0316 µM, first compound 1 µM
[5] = second compound 0.1 µM, first compound 0.0316 µM
[6] = second compound 0.1 µM, first compound 0.1 µM
[7] = second compound 0.1 µM, first compound 0.316 µM
[8] = second compound 0.1 µM, first compound 1 µM
[9] = second compound 0.316 µM, first compound 0.0316 µM
[10] = second compound 0.316 µM, first compound 0.1 µM
[11] = second compound 0.316 µM, first compound 0.316 µM
[12] = second compound 0.316 µM, first compound 1 µM
[13] = second compound 1 µM, first compound 0.0316 µM
[14] = second compound 1 µM, first compound 0.1 µM
[15] = second compound 1 µM, first compound 0.316 µM
[16] = second compound 1 µM, first compound 1 µM
[17] = second compound 3.16 µM, first compound 0.0316 µM
[18] = second compound 3.16 µM, first compound 0.1 µM
[19] = second compound 3.16 µM, first compound 0.316 µM
[20] = second compound 3.16 µM, first compound 1 µM
[21] = second compound 10 µM, first compound 0.0316 µM
[22] = second compound 10 µM, first compound 0.1 µM
[23] = second compound 10 µM, first compound 0.316 µM
[24] = second compound 10 µM, first compound 1 µM
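Note: spheroids exposed to drugs for 7 days.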
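Throughout, for viability, T/C: 100% = DMSO vehicle treated spheroids.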

C#Cc1c(F)ccc2cc(O)cc(-c3ncc4c(N5CC6CCC(C5)N6)nc(OCC56CCCN5CC(F)C6)nc4c3F)c12 (centres undefined) + Cc1cccc(N(C)C(=O)C2C(O)CCN2c2nc(C)cc(C(F)(F)F)c2C#N)c1
IC50 (second compound 0.0316 µM): 5.05 µM | IC50 (second compound 0.1 µM): 7.26 µM | IC50 (second compound 0.316 µM): 4.35 µM | IC50 (second compound 1 µM): 5.27 µM | IC50 (second compound 3.16 µM): 4.78 µM | IC50 (second compound 10 µM): 5.91 µM | viability, T/C [1]: 97.6% | viability, T/C [2]: 103% | viability, T/C [3]: 101% | viability, T/C [4]: 93.8% | viability, T/C (second compound 0.0316 µM, first compound 3.16 µM): 76.5% | viability, T/C (second compound 0.0316 µM, first compound 10 µM): 12% | viability, T/C [5]: 77% | viability, T/C [6]: 112% | viability, T/C [7]: 101% | viability, T/C [8]: 106% | viability, T/C (second compound 0.1 µM, first compound 3.16 µM): 103% | viability, T/C (second compound 0.1 µM, first compound 10 µM): 30.7% | viability, T/C [9]: 119% | viability, T/C [10]: 102% | viability, T/C [11]: 114% | viability, T/C [12]: 82% | viability, T/C (second compound 0.316 µM, first compound 3.16 µM): 64.7% | viability, T/C (second compound 0.316 µM, first compound 10 µM): 18.1% | viability, T/C [13]: 121% | viability, T/C [14]: 99.5% | viability, T/C [15]: 105% | viability, T/C [16]: 107% | viability, T/C (second compound 1 µM, first compound 3.16 µM): 82.7% | viability, T/C (second compound 1 µM, first compound 10 µM): 9.05% | viability, T/C [17]: 106% | viability, T/C [18]: 95.3% | viability, T/C [19]: 79.1% | viability, T/C [20]: 82.8% | viability, T/C (second compound 3.16 µM, first compound 3.16 µM): 78.3% | viability, T/C (second compound 3.16 µM, first compound 10 µM): 5.59% | viability, T/C [21]: 111% | viability, T/C [22]: 104% | viability, T/C [23]: 97.7% | viability, T/C [24]: 95.9% | viability, T/C (second compound 10 µM, first compound 3.16 µM): 114% | viability, T/C (second compound 10 µM, first compound 10 µM): 4.03%

CCc1c2c(nc3ccc(O)cc13)-c1cc3c(c(=O)n1C2)COC(=O)[C@]3(O)CC + Nc1ccc(C#CCN(C(=O)Cc2ncc(C(F)(F)F)cc2C(F)(F)F)c2ccc(F)cc2)nn1
IC50 (second compound 0.0316 µM): < 0.00316 µM | IC50 (second compound 0.1 µM): < 0.00316 µM | IC50 (second compound 0.316 µM): < 0.00316 µM | IC50 (second compound 1 µM): < 0.00316 µM | IC50 (second compound 3.16 µM): < 0.00316 µM | IC50 (second compound 10 µM): < 0.00316 µM | viability, T/C (second compound 0.0316 µM, first compound 0.00316 µM): 27% | viability, T/C (second compound 0.0316 µM, first compound 0.01 µM): 13.4% | viability, T/C [1]: 8.88% | viability, T/C [2]: 5.83% | viability, T/C [3]: 4.85% | viability, T/C [4]: 1.91% | viability, T/C (second compound 0.1 µM, first compound 0.00316 µM): 23.6% | viability, T/C (second compound 0.1 µM, first compound 0.01 µM): 11.1% | viability, T/C [5]: 7.44% | viability, T/C [6]: 6.7% | viability, T/C [7]: 7.41% | viability, T/C [8]: 2.23% | viability, T/C (second compound 0.316 µM, first compound 0.00316 µM): 29.8% | viability, T/C (second compound 0.316 µM, first compound 0.01 µM): 10.9% | viability, T/C [9]: 8.12% | viability, T/C [10]: 7.25% | viability, T/C [11]: 6.69% | viability, T/C [12]: 2.59% | viability, T/C (second compound 1 µM, first compound 0.00316 µM): 20.8% | viability, T/C (second compound 1 µM, first compound 0.01 µM): 12.1% | viability, T/C [13]: 6.5% | viability, T/C [14]: 9.5% | viability, T/C [15]: 5.03% | viability, T/C [16]: 2.07% | viability, T/C (second compound 3.16 µM, first compound 0.00316 µM): 26.3% | viability, T/C (second compound 3.16 µM, first compound 0.01 µM): 16.2% | viability, T/C [17]: 8.04% | viability, T/C [18]: 6.61% | viability, T/C [19]: 6.79% | viability, T/C [20]: 1.91% | viability, T/C (second compound 10 µM, first compound 0.00316 µM): 28% | viability, T/C (second compound 10 µM, first compound 0.01 µM): 14.1% | viability, T/C [21]: 5.91% | viability, T/C [22]: 7.41% | viability, T/C [23]: 8.18% | viability, T/C [24]: 2.64%
